Laboratory results published in patent US5885834A, “Antisense oligodeoxynucleotide against phosphodiesterase” (priority 1997, dated 1999).

Tested on: RPMI 8392 cells
Experiment: Apoptosis by endonuclease-digested DNA (DNA laddering) on agarose gels
Assay type: cell-based, human
Conditions: RPMI 8392 cells
Description: The preferred method for testing the ability of AS ODN to induce apoptosis as determined by detection of endonuclease digested DNA on agarose gels employs the following sequence:
(2) Cells are grown to ≈10^6 /ml, collected by centrifugation for 5 min. at 300×g (1000 rpm in an IEC Model K centrifuge), resuspended in growth medium to 10^6 cells/ml, and placed in a 24 well tissue culture plate at 1 ml/well. The cell volumes are kept to a minimum (i.e., -1 ml), in order to reduce the amount of ODN needed. The fetal bovine serum used in the growth medium for this step is heat-inactivated at 65° C. for 1 hr. to minimize serum nuclease activity.
(4) Cells are then incubated for varying times, usually 1-3 days, following which the DNA is isolated.
The supernatant is aspirated down to ≈50 μl of volume and the cell pellet is resuspended in this remaining small volume.
(6) About 400 μl of cold cell lysis buffer (50 mM Tris-HCl, pH 7.5, 10 mM EDTA, 1% Triton X-100) is then added.
(9) The upper, aqueous phase is transferred to a fresh microfuge tube and 250 μl of phenol and 250 μl of chloroform are added, the mixture gently vortexed for 5 sec., and centrifuged at 16,650×g for 5 min.
(10) The upper, aqueous phase is again transferred to a fresh microfuge tube and 500 μl of chloroform is added, followed by gentle vortexing and centrifugation at 16,650×g for 3 min.
(11) The upper, aqueous phase is again transferred to a fresh microfuge tube, 3M sodium acetate (pH 5.2) is added to a final concentration of 0.3M, and 2.5 volumes of ice cold 100% ethanol is added. The solution is left overnight at -20° C. to precipitate the DNA.
(12) The DNA is collected by centrifugation at 16,650×g for 15 min., the supernatant decanted, and the pellet air dried for ≈30-60 min. at room temperature. The DNA pellet is then dissolved in 50 μl of pH 8.0 TE buffer at room temperature overnight.
(13) One μl of a 4 mg/ml solution of DNase-free RNase A is then added to the DNA and incubation is carried out at 37° C. for 30 min. This step is necessary to prevent contaminating RNA from obscuring the gel.
(14) Thirty μl of DNA solution is then mixed with 6 μl of 6× loading buffer and run on a 2% agarose gel, containing 0.5 μg/ml ethidium bromide, in 0.5× TBE buffer (45 mM Tris-borate, 1 mM EDTA, pH 8.0) at ≈50 V for ≈1.5 hr. The 6× loading buffer used is 0.25% xylene cyanol and 30% glycerol. The use of bromophenol blue is omitted for this analysis because it tends to obscure the visualization of the DNA ladder pattern.
(15) The gel is then visualized and photographed under UV light.
The effect of pharmacological inhibition of each of these PDE activities on induction of apoptosis in RPMI 8392 cells was tested, using the appearance of oligonucleosome length fragments of endonuclease digested DNA as a measure of apoptosis.
Markers (lane 1 in both gels) are 1 kb DNA ladder size markers from GIBCO/BRL.
Cells (10^6) were collected by centrifugation at 670×g for 5 min. The cell pellets were rinsed once with 0.2M dibasic sodium phosphate and lysed in 300 μl of lysis buffer (50 mM Tris/HCl pH 7.5, 10 mM EDTA, 1% V/V Triton X-100) for 20 min on ice. Proteinase K was added to 0.5 mg/ml and DNase-free RNase was added to 50 μg/ml and the extract incubated at 37° C. for 1 hr. DNA was then extracted in phenol/chloroform (1:1) and chloroform (1:1) and precipitated in 2.5 volumes of ethanol. The extracted DNA was electrophoresed on 2% agarose gels, the gels stained with 0.5 μg/ml ethidium bromide and photographed under UV light.
Experiments were conducted to determine if inhibition of the expression of the gene for PDE1B1 could induce apoptosis.

5'-GGACAGCTCCATGCTCAG-3' (phosphorothioate, further chemistry not given here) [AS ODN, 18 nt phosphorothioate antisense oligodeoxynucleotide targeted against the translation initiation region of PDE1B1]
Induction of apoptosis (DNA fragmentation) (10 μM ODN, 3 days): induced apoptosis
Induction of apoptosis (DNA fragmentation) (30 μM ODN, 2 days (48 hr)): clearly induced apoptosis
Induction of apoptosis (DNA fragmentation) (30 μM ODN, 3 days): induced apoptosis

5'-TACGTGAGGCACCTACGC-3' (phosphorothioate, further chemistry not given here) [NS ODN, control phosphorothioate nonsense ODN, same base composition as the AS ODN in random, scrambled order]
Induction of apoptosis (DNA fragmentation) (30 μM ODN, 2 days (48 hr)): did not
Induction of apoptosis (DNA fragmentation) (any concentration tested (0.3-30 μM), 1, 2 and 3 days): no effect
